Experimental data from US7285392B2, “Methods for identifying active compounds” (Biovitrum AB, priority 2003, dated 2007).

How the values were obtained:
[1] = system: AP1 transcription factor binding to AP1 DNA probe; assay: EMSA with AP1 DNA probe (control), nuclear extracts of non-transfected WRL-68 cells; type: cell-based, human; settings: stimulated
Method: (§1) Cell culture: WRL-68 cells, a human fetal hepatic cell-line, were cultured in EMEM medium with NaHCO3 (Statens Veterinärmedicinska Anstalt), supplemented with 10% fetal bovine serum (FBS), 2% L-Glutamine, 1% Pyruvate and 1% Non essential amino acids (NEA), all from GIBCO. The cells were sub-cultivated twice weekly by trypsination to maintain a cell density of approximately 80%.
(§2) Stimulation: Cells were stimulated two days after transfection at a confluence of approximately 80%. […]
(§3) Extraction of nuclear proteins: To extract the proteins from the nuclei, the nuclear pellets were re-suspended in 2×lysis buffer with protease and phosphatase inhibitors (100 mM HEPES, pH 7.6, 300 mM NaCl, 10 mM EDTA (GIBCO), 2% Triton X-100 (Sigma), 0.2 mM PMSF, 0.2 mM sodium orto-vanadate, 2 nM okadaic acid, 1×complete), or EMSA buffer with inhibitors (20 mM Tris pH 8.0, 1.5 mM MgCl2, 0.2 mM EDTA, 25% glycerol, 0.5 mM PMSF, 0.2 mM sodium ortho-vanadate, 2 nM okadaic acid, 1×complete protease inhibitor), depending on whether the samples should also be used in electrophoresis mobility shift assays (EMSA) or not. For an optimal protein extraction, three different methods were evaluated. […] Optimal extraction was evaluated by Western blot and protein concentration determination as described below. […]

[2] = system: protein interactions with AP2 DNA probe; assay: EMSA with AP2 DNA probe, nuclear extracts of GHR-transfected WRL-68 cells; type: cell-based, human; settings: stimulated
Method: as §1
(§4) Transfection: Cells were transfected with human full-length GH-receptor (pMB1288, 2 μg/μl) by using DOTAP Liposomal Transfection Reagent (Roche), according to manufacturers manual. With this reagent a cationic liposome-mediated transfection method (lipofection) is used. […]
(§5) Extraction of nuclear proteins: To extract the proteins from the nuclei, the nuclear pellets were re-suspended in 2×lysis buffer with protease and phosphatase inhibitors (100 mM HEPES, pH 7.6, 300 mM NaCl, 10 mM EDTA (GIBCO), 2% Triton X-100 (Sigma), 0.2 mM PMSF, 0.2 mM sodium orto-vanadate, 2 nM okadaic acid, 1×complete), or EMSA buffer with inhibitors (20 mM Tris pH 8.0, 1.5 mM MgCl2, 0.2 mM EDTA, 25% glycerol, 0.5 mM PMSF, 0.2 mM sodium ortho-vanadate, 2 nM okadaic acid, 1×complete protease inhibitor), depending on whether the samples should also be used in electrophoresis mobility shift assays (EMSA) or not. For an optimal protein extraction, three different methods were evaluated. […]

[3] = system: GH-inducible mRNA; assay: GH-inducible mRNA level; type: cell-based
[4] = system: protein interactions with GHRE DNA probe; assay: EMSA with GHRE DNA probe, nuclear extracts of GHR-transfected and non-transfected WRL-68 cells; type: cell-based, human
Method: as §1
Transfection: Cells were transfected with human full-length GH-receptor (pMB1288, 2 μg/μl) by using DOTAP Liposomal Transfection Reagent (Roche), according to manufacturers manual. With this reagent a cationic liposome-mediated transfection method (lipofection) is used. T75 flasks with WRL-68 cells were transfected with 10 μg DNA for each flask. 5 μl (10 μg) DNA was diluted with 250 μl OPTIMEM1 medium (GIBCO) and mixed gently with 75 μl DOTAP reagent diluted in 175 μl OPTIMEM1 medium. The mixture was incubated for 10 minutes and then mixed gently with 10 ml OPTIMEM1 medium. Cells were washed once and then incubated for 4 hours with the DNA/DOTAP transfection mix, which was then changed to fresh culture medium. Cells were re-seeded into new culture dishes the following day.
as §2, §3

[5] = system: protein interactions with OCT1 DNA probe; assay: EMSA with OCT1 DNA probe, nuclear extracts of WRL-68 cells; type: cell-based, human; settings: stimulated
Method: as §1, §4, §5

[6] = molecular target: T1, GH receptor interaction with other transcription factors (Homo sapiens, UniProt P10912); assay: Electrophoretic mobility shift assays, GH-receptor transfected cells (summary); type: cell-based; settings: treatment with BVTA
T1 construct: Cells were transfected with human full-length GH-receptor (pMB1288, 2 μg/μl); expressed in transfected cells; host or cells: WRL-68 (human fetal hepatic cell line), plasmid pMB1288
T1 sequence (P10912 19-638): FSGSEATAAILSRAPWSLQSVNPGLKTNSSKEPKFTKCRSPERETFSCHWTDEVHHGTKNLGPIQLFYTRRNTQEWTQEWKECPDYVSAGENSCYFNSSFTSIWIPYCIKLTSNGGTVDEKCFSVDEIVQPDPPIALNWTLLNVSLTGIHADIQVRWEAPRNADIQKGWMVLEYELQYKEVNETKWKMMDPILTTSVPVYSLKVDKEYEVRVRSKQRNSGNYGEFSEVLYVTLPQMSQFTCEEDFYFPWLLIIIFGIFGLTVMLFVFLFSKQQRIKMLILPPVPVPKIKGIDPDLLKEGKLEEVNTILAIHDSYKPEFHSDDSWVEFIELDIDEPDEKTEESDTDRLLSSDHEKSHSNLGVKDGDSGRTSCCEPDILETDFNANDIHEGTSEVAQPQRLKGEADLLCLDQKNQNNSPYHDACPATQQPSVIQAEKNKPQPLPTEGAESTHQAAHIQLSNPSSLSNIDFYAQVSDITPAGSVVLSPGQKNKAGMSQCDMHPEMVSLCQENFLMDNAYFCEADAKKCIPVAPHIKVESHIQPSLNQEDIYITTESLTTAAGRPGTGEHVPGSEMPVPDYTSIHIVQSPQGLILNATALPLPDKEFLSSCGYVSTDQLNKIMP
Method: Electrophoretic Mobility Shift Assay: Electrophoretic Mobility Shift Assay (EMSA) is a method used to investigate protein-DNA interactions. A DNA probe with a known sequence is end-labeled with ^33P-ATP and then incubated with nuclear extracts. Proteins that bind specifically to the DNA-probe will reduce the mobility of the complex when separated on a non-denaturing poly acryl-amid gel and a shifted band can be seen. To identify proteins bound to the DNA-probe, an antibody can be added to the nuclear extract before incubation with the DNA-probe. If the antibody recognizes a protein that binds to the DNA, the mobility of the complex will be reduced even further and cause a supershift.

[7] = system: protein-DNA binding to GHRE DNA probe; assay: EMSA with GHRE DNA probe, HX rat liver nuclear extracts; design: species or system Sprague Dawley rat; settings: HX rats stimulated with hGH vs control animals
Method: (§6) Nuclear and cytosolic fractions were prepared from hypophysectomized Sprague Dawley rat livers (ethical license N176/02). The rats had minipumps implanted at 5 weeks of age for administration of hGH. Control animals were not stimulated and thus completely GH-deficient while GH-animals were stimulated continuously with hGH 0.12 mg/kg/day for five days. Animals were anaesthetized and livers were cut out and placed in ice-cold PBS. Livers were then cut into smaller pieces and transferred to 8 ml ice-cold hypotonic buffer with protease and phosphatase inhibitors and were allowed to swell on ice for 10 minutes. […]
as §5

[8] = system: protein-DNA binding to OCT1 DNA probe; assay: EMSA with OCT1 DNA probe, HX rat liver nuclear extracts; design: species or system Sprague Dawley rat; settings: HX rats stimulated with hGH vs control animals
Method: as §6, §5

[9] = system: protein-DNA interaction with AP2 DNA probe; assay: EMSA with AP2 DNA probe, HX rat liver nuclear extracts; design: species or system Sprague Dawley rat; settings: hGH stimulated animals compared to control animals
Method: as §6, §5

Compound	effect on AP1 shifted band [1]	protein-DNA interaction, top specific band, AP2 probe [2]	GH-inducible mRNA [3]	protein-DNA interaction in top shifted band, GHRE probe ([4]; GHR-transfected WRL-68 cells stimulated with BVTA)	effect on GHRE top weak band ([4]; non-transfected WRL-68 cells, stimulated)	protein-DNA interaction, top specific band, OCT1 probe [5]	interaction of GH receptor with other transcription factors [6]	protein-DNA binding, GHRE probe, hGH stimulation [7]	protein-DNA binding, OCT1 probe, hGH stimulation [8]	effect of stimulation on shifted bands, GHRE probe ([4]; both GHR-transfected and non-transfected WRL-68 cells)	protein-DNA binding, AP2 probe, hGH stimulation [9]
Cc1ccc(S(N)(=O)=O)cc1NC(=O)c1ccc(Br)o1 [BVTA, N-[5-(aminosulfonyl)-2-methylphenyl]-5-bromo-2-furamide]	no effects	broke the protein-DNA interaction	decrease	disrupted	no effect	decreased	down regulated				
hGH: human growth hormone (Genotropin, Pharmacia)	no effects	no effects				No effects		did not show any differences	did not show any differences	No effect	No difference in protein-DNA binding
